Results as given in patent publication US12296027B2, “Molecular renal probes for detecting acute kidney injury” (Nanyang Technological University, priority 2019, dated 2025).
“And” between values parts separate entries of the source, which are not always exact repeats. Identical values can stand only once.

Key:
[1] = in DMSO; cited from earlier work
[2] = in 3 h, Patients; cited from earlier work
[3] = Body weight of drug-treated mice; assay type: in vivo; conditions: BALB/c mice, single i.v. dose
Description: Mice were randomly selected and treated with cisplatin (5 mg kg^−1, 10 mg kg^−1 or 20 mg kg^−1 body weight, i.p. injection), gentamicin (100 mg kg^−1 day^−1, i.p. injection) or diatrizoate (1000 mg kg^−1 body weight, i.v injection, water deprivation for 24 h before treatment). The control groups were treated with saline (0.2 ml) or NAC (400 mg kg^−1 body weight, i.v injection) 30 min prior to cisplatin administration^50. Body weights of all the mice were recorded during treatment. After drug administration, the weight of mice and signs of discomfort were monitored on a daily basis during the entire experiments (FIG. 46). Imaging, blood and urine sampling were conducted at different timepoints post-treatment of drug. At the end, mice were euthanized and major organs were placed into 4% paraformaldehyde for histological examination.
For the doxorubicin model, dose-finding studies were first carried out to define an optimal dose of 10 mg kg^−1 body weight of doxorubicin. […] The corresponding MRP (40 mg kg^−1) was systematically injected through the tail vein at t=0, 2 d, 5 d, and 8 d post-treatment of DOX, and fluorescence images were acquired. […] Fluorescence images of living mice and urine samples were acquired for 0.1 s with excitation at 675±20 nm, and emission at 720±20 nm. Fluorescence images were analysed by ROI analysis using the Living Image 4.0 Software.

[4] = Photophysical properties (absorption, fluorescence, quantum yield); assay type: physicochemical
Description: Optical measurement. […] The ADR solution (30 μM) was incubated with KO2 (60 μM) and NAG (40 mU), respectively, in PBS (10 mM, pH 7.4) at 37° C. […] Fluorescence images were acquired using the IVIS spectrum imaging system with excitation at 675±10 nm (640±10 nm for MRPD) and emission at 720±10 nm (760±10 nm for MRPD) and the acquisition time of 0.1 s. Chemiluminescence images were acquired under bioluminescence mode with open filter and the acquisition time of 1 s. The sensing capability of MRPs was analysed through HPLC. UV-Vis and fluorescence spectra of the uncaged fluorophores solution (30 μM) in PBS (10 mM, pH 7.4) were recorded on UV-Vis and fluorescence spectrophotometers.
Measurement of fluorescence quantum yields. ICG was used as a standard with a known fluorescence quantum yield (ϕ) value of 13% in DMSO (R. C. Benson, H. A. Kues, J. Chem. Eng. Data 1977, 22, 379-383). Fluorescence quantum yields were calculated using the following equation: ϕs/ϕf=(As/Af)×(Abss/Absf)×(ηs^2/ηf^2), Where ϕs and ϕf are the fluorescence quantum yields of the standard and the samples, respectively; As and Af are the emission areas of the standard and the samples, respectively; Abss and Absf are the absorbance of the standard and the samples at the wavelength of excitation; ηs and ηf are the refractive indices of the standard and the samples, respectively.

[5] = Renal clearance efficiency studies (urine HPLC); assay type: in vivo; conditions: healthy mice, i.v.
Description: NCr nude mice were i.v. injected with the uncaged fluorophores (CMe, CP2, CP5 and CCD, 8 μmol kg^−1 body weight), MRPs1-3 (8 μmol kg^−1 body weight) or MRPD (32 μmol kg^−1 body weight) and placed in metabolic cages (3 mice were analysed for each sample). […] Urine was collected at 1, 3, 6, 9 and 24 h post-injection, centrifuged at 4500 r.p.m. for 8 min and filtered by 0.22 μm syringe filter. Excretion of the uncaged fluorophores and MRPs in the urine was quantified using HPLC. Mice were sacrificed to image resected organs after 24 h urine collection. Fluorescence intensities for resected organs were analysed by the ROI analysis using the Living Image 4.3 Software. Major organs were collected, homogenised in PBS buffer (10 mM, pH 7.4) and centrifuged at 4500 r.p.m for 15 min to remove insoluble components. Fluorescence intensities of the final supernatants were measured on fluorescence spectrophotometer.
Mice were i.v. injected with ADR (30 μmol kg^−1 body weight) and placed in metabolic cages. Urine was collected at 1, 3, 6, 9 and 24 h post-injection, diluted in PBS and centrifuged at 4500 r.p.m. for 10 min and filtered by 0.22 μm syringe filter. ADR in the urine was quantified using HPLC. The absorption and fluorescence spectra were measured for the urine samples. […]

[6] = In vivo biodistribution by NIRF imaging; parameters: species or system mice; conditions: i.v., 8 μmol kg^−1 (MRPD 32 μmol kg^−1)
Description: All animal studies were performed in compliance with the guidelines set by the Institutional Animal Care and Use Committee (IACUC), Sing Health. Female nude mice (Tac:Cr:(NCr)-Fox1nu, 8 weeks old) were obtained from InVivos Pte Ltd (Singapore). Aged female nude mice (25 weeks old) were obtained by feeding after receive at 8 weeks old. Female Balb/c mice (10 weeks old), male type 2 diabetic BKS-db mice (BKS-Lepr^em2Cd479 with a C57BLKS/J background, 12 weeks old) and male nondiabetic C57BLKS/J wild-type mice (12 weeks) were obtained from Nanjing Biomedical Research Institute of Nanjing University (Nanjing, China). NCr nude mice were i.v. injected with 0.2 ml saline (control), the uncaged fluorophores (CMe, CP2, CP5 and CCD, 8 μmol kg^−1 body weight) or MRPD (32 μmol kg^−1 body weight), and imaged using the IVIS spectrum imaging system at 30 and 60 min post-injection. The abdominal cavity and resected organs from mice were imaged after sacrifice at t=60 min post-injection. Fluorescence images were acquired using the IVIS spectrum imaging system with excitation at 675±10 nm (640±10 nm for MRPD) and emission at 720±10 nm (760±10 nm for MRPD). Fluorescence intensities for each organ were analysed by the region of interest (ROI) analysis using the Living Image 4.3 Software (3 mice were analysed for each sample).

Compound: CC1(C)C(/C=C/C=C/C=C/C=C2\N(CCCCS(=O)(=O)[O-])c3ccc4ccccc4c3C2(C)C)=[N+](CCCCS(=O)(=O)[O-])c2ccc3ccccc3c21.[Na+] [ICG]
- fluorescence quantum yield (ϕ) of standard [1]: 13%

Compound: O=C([O-])CN=C([O-])CN=C([O-])CN=C([O-])C[S-].[O-2].[Tc+4] [^99mTc-MAG3]
- Renal clearance efficiency [2]: 90% ID in 3 h

Compound: COc1cccc2c1C(=O)c1c(O)c3c(c(O)c1C2=O)C[C@@](O)(C(=O)CO)C[C@@H]3O[C@H]1C[C@H](N)[C@H](O)[C@H](C)O1 [DOX, doxorubicin]
- mean body weight gain by day 16 [3]: 3%
- mean body weight loss by day 8 [3]: approximately 6%

Compound: C[N+]1=C(/C=C/C2=C3Oc4cc(O)ccc4C=C3CCC2)C(C)(C)c2ccccc21 [CMe]
- Stokes shift [4]: 25 nm
- λab, wavelength of maximum absorbance ([4]; PBS pH 7.4): 690 nm and 697 nm
- λem, wavelength of maximum emission ([4]; PBS pH 7.4): 720 nm and 722 nm
- renal clearance efficiency at 24 h post-injection [5]: nearly undetectable in urine
- Renal clearance efficiency (%) ([5]; Table 5): <5%
- biodistribution at 1 h post-injection (ex vivo NIRF) [6]: mainly accumulated in the liver, gallbladder, and intestine
